In brackets after ≈: the same amount, converted by molar mass.
Key:
PHL [1] = target: T1, PHL (Photorhabdus asymbiotica, UniProt C7BLE4); experiment: Hemagglutination inhibition assay with PHL (papain-treated human RBCs O); type: cell-based; details: for MIC (minimal inhibitory concentration, hemagglutination by PHL): RBC O, two independent measurements; for PotencyL-Fuc: MIC L-fucose / MIC ligand; for β L-Fuc (affinity improvement factor): MICbasic unit/(valency × MICligand), basic unit L-Fuc; for β Azide1 (affinity improvement factor): basic unit azide 1
Procedure: The set of potential ligands 1–10 with different levels of fucosylation was tested, and their inhibition potency on hemagglutination by PHL was assessed (Table 1, Fig. 2). […] To assess the contribution of valency to the affinity increase, an affinity improvement factor β was calculated as the relationship MICbasic unit/(valency × MICligand).
Human red blood cells (RBCs) O were processed according to previously published work[16]. In brief, RBCs O treated with sodium citrate were washed four times by PBS buffer (137 mM NaCl, 2.7 mM KCl, 8 mM Na2HPO4, 1.47 mM KH2PO4, pH 7.4), diluted to 50% by PBS with 0.005% (w/w) sodium azide and treated by 0.1% papain for the duration of 30 minutes.
Hemagglutination inhibition assay was performed for specificity and semi-quantitative affinity of the PHL interaction with the compounds. All carbohydrate inhibitors in 50 mM starting concentration were serially diluted in the PBS buffer and used for a determination of the lowest inhibiting concentration. As a blank, the PBS buffer supplemented with the appropriate amount of DMSO was used in order to exclude potential interference with the interaction. The individual samples were mixed with the lectin in concentration 2 mg/ml in a 5 μl:5 μl ratio. Thereafter, 10 μl of 10% RBCs O in PBS buffer was added, thoroughly mixed and incubated for 10 minutes at room temperature. Following incubation, the mixture was again mixed and the reaction was observed on microscope slides using Levenhuk 2L NG microscope with Levenhuk D2L digital camera (Levenhuk, USA). Imagines were obtained via software ToupView for Windows (Levenhuk). The positive (PHL without inhibitor) and negative control (reaction without PHL) were prepared and processed in the same way using the appropriate volume of PBS buffer instead of the not included components. The lowest concentration of inhibitor able to inhibit agglutination was determined and compared with the standard (L-fucose). Minimal inhibitory concentrations (MIC) of synthesised inhibitors were determined from two independent measurements.

PHL [2] = target: T1, PHL; experiment: Isothermal titration calorimetry of PHL with ligands; type: binding; details: for Kd / −TΔS / −ΔG / −ΔH / n (stoichiometry): ITC at 25 °C; for n (stoichiometry): two independent measurements; for Potency L-Fuc: KD L-fucose / KD ligand; for β L-Fuc (affinity improvement factor): KD,basic unit/(valency × KD,ligand), basic unit L-Fuc; for β Azide1 (affinity improvement factor): basic unit azide 1
Source text: The binding of PHL to different α-L-fucoside compounds was further characterized by isothermal titration calorimetry (ITC), enabling determination of the complete thermodynamic profile of the molecular interactions (Table 3, Fig. 4). […] Because of this, it was not possible to evaluate the data, despite the obvious interaction. The dendrimers also cross-linked/aggregated the protein as with calixarenes, however the curves provided clear outcomes with an affinity in the low micromolar range. The dissociation constants (KD) of all dendrimers correlate with their valency – the higher number of fucose, the more decreased KD. […] The stoichiometry value n corresponds to the number of terminal fucoses per ligand molecule. The n value decreases from 4 to 1 as the number of fucose units increases from 1 to 12 (Table 3).
PHL protein in buffer A was equilibrated at room temperature at least for 30 min before ITC measurement. All ITC experiments were performed using ITC200 calorimeter (Malvern Panalytical, UK) at 25 °C. Carbohydrate ligands dissolved in buffer A were used at different concentrations. Protein in the calorimeter cell (50 μM) was titrated by consecutive additions (2 μl) of the ligand (1.5–5 mM) in the syringe while stirring at 1000 rpm. Integrated heat effects were analysed by nonlinear regression using a single-site binding model and global fitting in Origin 7 software (Microcal Instruments)[37]. The thermodynamic parameters of synthesised inhibitors were determined from two independent measurements.

[3] = test system: P. asymbiotica subsp. australis cells; experiment: Cell aggregation (cross-linking) assay; type: cell-based, Photorhabdus asymbiotica subsp. australis; details: three independent measurements
Source text: Because of the aggregation of PHL by calixarenes and dendrimers during SPR and ITC experiments, we decided to compare tetravalent compounds at a higher level. We performed a series of in vitro aggregation assays to reveal their aggregation properties towards P. asymbiotica subsp. australis (Table 4, Fig. 5). Prior to each assay, we confirmed the absence of aggregates in two negative controls – bacterial cells in PBS buffer and in the presence of azide 1 as a monomer. With all chosen compounds, we observed bacterial aggregates of a variable size that confirmed that they are capable of interacting with a cell surface. This effect may be caused by interaction of the multivalent inhibitors with PHL or other receptors. The concentration of the first appearance of aggregates varied according to the nature of the ligand used. […] An unexpected observation was that calixarene 7 had the lowest aggregation potential. In contrast to other techniques (hemagglutination, SPR and ITC), where calixarenes 6 and 7 provided similar results, during cross-linking experiments calixarene 7 was four times worse than calixarene 6. At the same time, both tetrameric calixarenes 6 and 7 are in a 1,3-alternate conformation with the two-faced presentation of the fucopyranosyl epitopes on opposite regions probably occupying a similar spatial orientation. The only difference is the tert-Bu group on the upper rim in calixarene 6, which might contribute to nonpolar interactions with whole P. asymbiotica cells.
P. asymbiotica subsp. australis was inoculated from stock cells stored at −80 °C into a standard LB media and were grown in 30 °C under an orbital shaking overnight. Bacterial growth was tracked by measuring the optical density of the broth at 600 nm (OD600) using a spectrophotometer (Biochrom Ltd., BioPhotometer WGA CO 8000 Biowave). Cells were harvested when reaching an OD600 = 0.5. The culture was centrifuged at 4,300 g and room temperature for 2 minutes (Minispin, Eppendorf, Germany) and cells were then washed three times with PBS buffer. Cells were diluted in PBS to OD600 of 2.0 and kept in a fridge until performing the aggregation assay.
P. asymbiotica subsp. australis cells and fucosylated compounds in a concentration ranging from 50 mM to 3.125 mM were gently mixed in a 9:1 (v/v) ratio. The reaction mixtures were left at room temperature for 10 minutes. 5 µl of reaction mixture was then transferred onto a microscope slide and observed under a fluorescence microscope (OLYMPUS IX81 Microscope IX81F-3 with IX2-UCB-2 Controller and X-Cite 120PC Q; Olympus and Excelitas Technologies, Japan, resp. USA). As a negative control, bacterial cells with/without azide 1 as a monomer were used. Three independent measurements were performed.

T1 sequence (C7BLE4 entry or part of it): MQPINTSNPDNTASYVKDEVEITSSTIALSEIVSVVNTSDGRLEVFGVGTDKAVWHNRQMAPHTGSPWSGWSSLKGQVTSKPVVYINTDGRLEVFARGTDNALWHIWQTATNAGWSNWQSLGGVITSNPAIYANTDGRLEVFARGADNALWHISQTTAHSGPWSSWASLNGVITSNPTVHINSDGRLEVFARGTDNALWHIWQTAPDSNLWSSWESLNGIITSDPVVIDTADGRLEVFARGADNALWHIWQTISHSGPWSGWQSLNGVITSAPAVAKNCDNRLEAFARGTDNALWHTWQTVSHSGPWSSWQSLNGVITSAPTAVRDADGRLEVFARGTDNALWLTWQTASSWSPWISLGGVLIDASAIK

SMILES | MIC (minimal inhibitory concentration, hemagglutination by PHL) (PHL [1]) [µM] | PotencyL-Fuc (PHL [1]; hemagglutination) | PotencyL-Fuc (PHL [1]; hemagglutination, listed as azide 1) | β L-Fuc (affinity improvement factor) (PHL [1]; hemagglutination) | β Azide1 (affinity improvement factor) (PHL [1]; hemagglutination) | Kd (PHL [2]) [µM] | −TΔS (PHL [2]) [kcal/mol] | −ΔG (PHL [2]) [kcal/mol] | −ΔH (PHL [2]) [kcal/mol] | n (stoichiometry) (PHL [2]) | Potency L-Fuc (PHL [2]; ITC) | β L-Fuc (affinity improvement factor) (PHL [2]; ITC) | β Azide1 (affinity improvement factor) (PHL [2]; ITC) | The lowest concentration able to aggregate P. asymbiotica cells [3] | PotencyAzide1 (PHL [1]; hemagglutination, relative to azide 1) | PotencyAzide1 (PHL [2]; ITC, relative to azide 1)
C[C@@H]1O[C@@H](CCN=[N+]=[N-])[C@@H](O)[C@H](O)[C@@H]1O [Azide 1] | 200 (≈ 43.4 µg/mL) | 15.6 | 16 | 15.6 | 1 | 105 ± 9 | 4.83 ± 1.05 | 5.43 ± 0.478 | 10.3 ± 0.932 | 4.1 ± 0.3 | 13 | 13 | 1 | No visible aggregation in used concentrations | – | –
C[C@@H]1O[C@@H](CCn2cc(COCC(COCc3cn(CC[C@@H]4O[C@@H](C)[C@@H](O)[C@@H](O)[C@@H]4O)nn3)(COCc3cn(CC[C@@H]4O[C@@H](C)[C@@H](O)[C@@H](O)[C@@H]4O)nn3)COCc3cn(CC[C@@H]4O[C@@H](C)[C@@H](O)[C@@H](O)[C@@H]4O)nn3)nn2)[C@@H](O)[C@H](O)[C@@H]1O [Dendrimer 8] | 50 (≈ 57.9 µg/mL) | 62.5 | – | 15.6 | 1 | 36.9 ± 3.7 | 6.84 ± 0.765 | 6.05 ± 0.598 | 12.9 ± 0.454 | 3.0 ± 0.1 | 38 | 9 | 1 | 0.625 mM | 4 | 3

From publication PMC6797808, “Fucosylated inhibitors of recently identified bangle lectin from Photorhabdus asymbiotica” (Scientific Reports, 2019)
